Tests used:
RD cells = experiment: Detection of cytotoxicity in RD cells (CellTiter-Glo); format: cell-based; settings: for TD50: 4 days, CellTiter-Glo, median toxic dose
Outline: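 RD cells (1*10^5/mL) cultured 4 days at 37 °C with 10 compound concentrations from 3-fold dilution of a 400 μM pretreatment solution, final being 0.5 times that. Viability by CellTiter-Glo luminescence versus cell control; TD50 from S-curve fit; SI=TD50/IC50.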

mTOR kinase = target: T1, mTOR kinase (Homo sapiens, UniProt P42345); experiment: In vitro inhibitory activity on mTOR kinase (TR-FRET, GFP-4E-BP1 substrate); format: biochemical; settings: for IC50: 0.5 μg/mL mTOR, 0.4 μM GFP-4E-BP1, 3 μM ATP
T1 construct: purchased Thermo Fisher PV4753
Protocol: Preparation of Reaction Buffers:
Basic buffer composition: 50 mM (mmol/L) HEPES (pH 7.5), 1 mM EGTA, 0.01% Tween-20, 10 mM MnCl2, 2 mM DTT (diluted from 500 mM before used).
(2) mTOR kinase buffer solution: 1650 μL of 2.5×mTOR kinase buffer solution was composed of 1640.2 μL of 1× basic buffer and 9.8 μL of mTOR (0.21 mg/mL stock solution), and the final concentration was 0.5 μg/mL.
(3) Detection buffer solution: 3960 μL of 2× detection buffer solution was composed of 3797.1 μL of TR-FRET buffer diluent (purchased from Thermo Fisher, catalog number: PV3574), 4.5 μL of Tb-anti-p4E-BP1 antibody (3.49 μM stock solution, purchased from Thermo Fisher, catalog number: PV4757) and 158 μL of EDTA (500 mM stock solution), and the final concentrations were 2 nM Tb-anti-p4E-BP1 antibody and 10 mM EDTA.
(1) 20 μL of 100% DMSO solution containing 5 mM compound to be tested was added to a 96-well plate.
(2) The compound was serially diluted 3 times in DMSO.
(3) 1 μL of the compound in the previous step was taken, diluted with 19 μL of mTOR kinase buffer, and transferred to another 96-well plate.
(4) 4 μL of mTOR kinase solution (purchased from Thermo Fisher, catalog number: PV4753) was added to a 384-well plate.
(5) 2 μL of the compound in G was taken out and added to the 384-well plate with mTOR kinase, and incubated at room temperature for 15 minutes.
(6) 4 μL of substrate solution was added to initiate the reaction.
The final concentrations of mTOR reaction solution were: 0.5 μg/mL mTOR, 0.4 μM GFP-4E-BP1, 3 μM ATP.
The final concentration of the DMSO solution was 1%.
(7) Incubation was performed for 60 minutes at room temperature.
(8) 10 μL of detection buffer was added. The final concentrations were 2 nM Tb-anti-p4E-BP1 antibody and 10 mM EDTA.
(9) Incubation was performed for 30 minutes at room temperature.
(10) TR-FRET value was read on MD5 multi-mode plate reader (Molecular Devices). The excitation wavelength was 340 nm, the emission wavelength 1 was 495 nm, and the emission wavelength 2 was 520 nm. The ratio of 520 nm/495 nm readings was calculated as TR-FRET value.
IC50 of compound was fitted by nonlinear regression equation:
Y=Bottom+(Top-Bottom)/(1+10^((LogIC50-X)*HillSlope));
X: common logarithm value of compound concentration; Y: TR-FRET value (520 nm/495 nm).

T1 sequence (P42345 1360-2549 limits assumed): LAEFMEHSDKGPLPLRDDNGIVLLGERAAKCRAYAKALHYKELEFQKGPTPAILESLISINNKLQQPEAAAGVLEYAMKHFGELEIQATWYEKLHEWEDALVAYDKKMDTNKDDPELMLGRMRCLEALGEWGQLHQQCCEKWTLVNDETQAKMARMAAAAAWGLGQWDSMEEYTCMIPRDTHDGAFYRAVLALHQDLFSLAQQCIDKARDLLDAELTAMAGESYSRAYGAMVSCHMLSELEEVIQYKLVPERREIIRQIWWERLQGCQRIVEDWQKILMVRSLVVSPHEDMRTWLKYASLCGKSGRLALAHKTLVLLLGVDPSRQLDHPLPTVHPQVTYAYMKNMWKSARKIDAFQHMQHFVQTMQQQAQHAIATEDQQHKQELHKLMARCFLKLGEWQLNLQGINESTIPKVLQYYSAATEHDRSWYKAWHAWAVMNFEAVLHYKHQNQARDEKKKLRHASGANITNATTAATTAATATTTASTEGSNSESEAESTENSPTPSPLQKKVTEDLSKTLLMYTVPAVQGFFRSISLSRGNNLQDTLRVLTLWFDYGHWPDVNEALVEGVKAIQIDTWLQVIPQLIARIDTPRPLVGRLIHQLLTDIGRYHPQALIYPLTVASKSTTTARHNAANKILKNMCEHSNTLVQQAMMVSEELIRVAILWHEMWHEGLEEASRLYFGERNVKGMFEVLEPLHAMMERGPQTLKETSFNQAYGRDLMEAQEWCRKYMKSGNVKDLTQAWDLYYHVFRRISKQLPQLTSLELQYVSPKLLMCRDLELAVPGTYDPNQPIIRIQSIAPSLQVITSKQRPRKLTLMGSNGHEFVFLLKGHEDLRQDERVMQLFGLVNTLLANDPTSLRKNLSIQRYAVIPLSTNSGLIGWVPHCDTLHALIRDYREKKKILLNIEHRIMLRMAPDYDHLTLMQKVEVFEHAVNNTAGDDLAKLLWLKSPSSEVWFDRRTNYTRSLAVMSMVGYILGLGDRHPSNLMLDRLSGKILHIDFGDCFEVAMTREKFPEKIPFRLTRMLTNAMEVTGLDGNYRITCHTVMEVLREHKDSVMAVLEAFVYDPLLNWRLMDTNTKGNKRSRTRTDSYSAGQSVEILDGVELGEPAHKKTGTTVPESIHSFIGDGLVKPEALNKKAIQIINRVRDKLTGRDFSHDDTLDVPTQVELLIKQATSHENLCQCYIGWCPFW

Structure (SMILES) | TD50 (RD cells) [µM] | IC50 (mTOR kinase) [nM] | toxicity, in words (RD cells) | inhibitory activity on mTOR kinase, in words (mTOR kinase)
Nc1cccc(Nc2ccc3ncc4ccc(=O)n(-c5cccc(C(F)(F)F)c5)c4c3c2)n1 [HTL-6-12, 9-[2-(6-aminopyridyl)]imino-2-oxo-1-[3-(trifluoromethyl)phenyl]-1,2-dihydrobenzo[h][1,6]naphthyridine] | 5.19 ± 0.56 | 68.2 |  | 
O=c1ccc2cnc3ccc(-c4cccnc4F)cc3c2n1-c1cccc(C(F)(F)F)c1 [HTL-6-48, 9-[3-(2-fluoro)pyridyl]-2-oxo-1-[3-(trifluoromethyl)phenyl]-1,2-dihydrobenzo [h][1,6]naphthyridine] | 1.23 ± 1.20 | 31.5 | relatively low toxicity | 
CN(C)c1ccc(-c2ccc3ncc4ccc(=O)n(-c5cccc(C(F)(F)F)c5)c4c3c2)cn1 [HTL-7-16, 9-[3-(6-N,N-dimethyl)pyridyl]-2-oxo-1-[3-(trifluoromethyl)phenyl]-1,2-dihydrobenzo[h][1,6]naphthyridine] | 0.17 ± 0.06 | 8.91 |  | excellent inhibitory activity
CC(=O)/C=C/c1cnc2ccc(-c3ccc(C)nc3)cc2c1Nc1cccc(C(F)(F)F)c1 [HTL-2-38, (E)-6-[3-(6-methyl)pyridyl]-4-[3-(trifluoromethyl)phenyl]aminoquinoline-3-butenone] | 8.71 ± 1.53 | 1010 |  | weak inhibitory activity
O=c1ccc2cnc3ccc(-c4cc[nH]n4)cc3c2n1-c1cccc(C(F)(F)F)c1 [HTL-6-50, 9-[(1H)-3-pyrazolyl]-2-oxo-1-[3-(trifluoromethyl)phenyl]-1,2-dihydrobenzo[h][1,6]naphthyridine] | 0.17 ± 0.05 | 159 |  | moderate inhibitory activity

Source: patent US20220220106A1, “QUINOLINE COMPOUNDS AND PHARMACEUTICAL COMPOSITIONS AND USES THEREOF” (Academy of Military Medical Sciences, priority 2019, published 2022)
